Source: the NIST ThermoML archive (doi:10.1021/acs.jced.7b00191)
Numbers after ± are expanded uncertainties.

Details: Liquid; Visual observation in an unstirred cell

Row | Compound | Critical temperature [K]
1 | Clc1ccccc1Cl [1,2-dichlorobenzene] | 698.8 ± 2.8
2 | CC(C)CC(C)(C)C [2,2,4-trimethylpentane] | 544 ± 2.8
3 | CCC(C)(C)C [2,2-dimethylbutane] | 489.4 ± 2.8
4 | c1ccccc1 [benzene] | 562.2 ± 2.8
5 | Fc1ccccc1 [fluorobenzene] | 557.3 ± 2.8
6 | CCCCCCC [heptane] | 540.6 ± 2.8
7 | CCCCCC [hexane] | 507.4 ± 2.8
8 | CCCCCCCC [octane] | 568.8 ± 2.8
